Measurements as given in US20040229954A1, “Selective manipulation of triglyceride, HDL and LDL parameters with 6-(5-carboxy-5-methyl-hexyloxy)-2,2-dimethylhexanoic acid monocalcium salt” (priority 2003, published 2004).
Marks after values point to notes of the source that are not given here.

Experiment: Randomized, double-blind, placebo-controlled dose-response study of gemcabene in patients with HDL-C <35 mg/dL; percent change from baseline in serum lipids and apolipoproteins
Assay type: in vivo, human
Description: A randomized, double-blind, placebo-controlled, parallel group, dose-response, multicenter study was conducted. The study was conducted at 11 centers in the United States and one center in Canada. Institutional Review Board approval was obtained at each center and every patient was informed of the study, freely consented to participate and signed an informed consent document. Following a 6-week, single-blind placebo, dietary lead in period conducted according to National Cholesterol Education Program Step 1 Diet, eligible patients with HDL-C level <35 mg/dL (0.9 mmol/L) were stratified according to whether mean serum TG levels, calculated from measures at 2 and 4 weeks prior to randomization, were <200 mg/dL (2.3 mmol/L) or >200 mg/dL (2.3 mmol/L). Within each TG stratum, patients were randomized to receive either 150, 300, 600, or 900 mg of gemcabene or placebo daily once daily for 12 weeks.
Eligible patients were women of non-childbearing potential (naturally postmenopausal or surgically sterilized) or men 18 to 80 years of age with a baseline serum HDL-C levels <35 mg/dL. Patients were excluded if they had creatine kinase serum levels >3 times the upper limit of normal, a body mass index >35 kilogram/meter^2, uncontrolled hypertension defined as sitting diastolic blood pressure >95 mm Hg whether taking or not taking an acceptable antihypertensive medication, uncontrolled diabetes mellitus (Hemoglobin A1C>10%), hepatic dysfunction including asparate aminotransferase or alanine aminotransferase levels >2 times the upper limits of normal, renal dysfunction as defined by blood urea nitrogen or creatinine levels >2 times upper limits of normal or uncontrolled hypothyroidism (thyroid stimulating hormone >1.5 times the upper limits of normal). Also excluded were those with a prior history of known gall bladder disease or pancreatitis, a history of consuming >14 alcoholic drinks per week, or those with a known hypersensitivity to lipid-altering drugs. Patients who had myocardial infarction, severe or unstable angina pectoris, coronary artery bypass graft or any other cardiovascular event requiring hospitalization within the last 3 months were also excluded from the study. Patients were not permitted any other lipid-altering drugs during the course of the study and if on prestudy lipid-altering drug therapy, were required to undergo an additional 4-week washout period. Use of isotretinoin, insulin, warfarin, immunosuppressive agents and intermittent systemic steroids were also prohibited. Alpha-blockers, β-blockers, hormone replacement therapy and oral hypoglycemic agents were permitted provided that their use was stable for at least 3 months.
The primary efficacy parameter was percent change from baseline in serum HDL-C levels at the study subject's last visit. Other efficacy parameters included percent change from baseline in serum LDL-C, TG, apolipoproteins A-I, A-II, B, C-III, E, and non-HDL-C levels. Additionally, nuclear magnetic resonance (NMR) spectroscopy was used to assess VLDL, HDL and LDL particle sizes as well as the total concentration of LDL particles. For HDL-C, non-HDL-C, LDL-C, and TG levels, the baseline value was the mean plasma value of two measurements, one obtained 2 weeks prior to randomization and one obtained at randomization. For all other parameters, the baseline value was defined as the single measurement obtained at randomization.
All blood samples were collected following a 12-hour fast and analyzed by Medical Research Laboratories in Highland Heights, Ky. Blood samples for routine chemistry and hematology profiles were measured at screening, randomization and 4, 8, and 12 weeks following the start of study medication. Basic lipid profiles (HDL-C, LDL-C, and TG) were measured at screening, 2 and 4 weeks prior to starting study medication (during the baseline phase), at randomization, and at weeks 2, 4, 8 and 12 of the treatment phase. […]

[1] = patients with TG <200 mg/dL, 150 mg once daily for 12 weeks, mean ± SE
[2] = patients with TG <200 mg/dL, 150 mg once daily for 12 weeks, median (min, max)
[3] = patients with TG <200 mg/dL, 300 mg once daily for 12 weeks, mean ± SE
[4] = patients with TG <200 mg/dL, 300 mg once daily for 12 weeks, median (min, max)
[5] = patients with TG <200 mg/dL, 600 mg once daily for 12 weeks, mean ± SE
[6] = patients with TG <200 mg/dL, 600 mg once daily for 12 weeks, median (min, max)
[7] = patients with TG <200 mg/dL, 900 mg once daily for 12 weeks, mean ± SE
[8] = patients with TG <200 mg/dL, 900 mg once daily for 12 weeks, median (min, max)
[9] = patients with TG ≧200 mg/dL, 150 mg once daily for 12 weeks, mean ± SE
[10] = patients with TG ≧200 mg/dL, 150 mg once daily for 12 weeks, median (min, max)
[11] = patients with TG ≧200 mg/dL, 300 mg once daily for 12 weeks, mean ± SE
[12] = patients with TG ≧200 mg/dL, 300 mg once daily for 12 weeks, median (min, max)
[13] = patients with TG ≧200 mg/dL, 600 mg once daily for 12 weeks, mean ± SE
[14] = patients with TG ≧200 mg/dL, 600 mg once daily for 12 weeks, median (min, max)
[15] = patients with TG ≧200 mg/dL, 900 mg once daily for 12 weeks, mean ± SE
[16] = patients with TG ≧200 mg/dL, 900 mg once daily for 12 weeks, median (min, max)
[17] = patients with mean baseline TG≧2200 mg/dL (so in the source), 150 mg dose

Structure (SMILES): CC(C)(CCCCOCCCCC(C)(C)C(=O)[O-])C(=O)[O-].[Ca+2] [gemcabene, 6-(5-carboxy-5-methyl-hexyloxy)-2,2-dimethylhexanoic acid monocalcium salt]
- levels of apolipoprotein B (both TG strata, 600 and 900 mg doses): corresponding decreases
- reduction of non-HDL-C levels (both TG strata, higher doses): up to 18%
- Percent Change from Baseline at Last Visit, Apolipoprotein A-II [1]: 5.5 ± 2.6 %
- Percent Change from Baseline at Last Visit, Apolipoprotein CIII [1]: −7.0 ± 9.2%
- Percent Change from Baseline at Last Visit, HDL-C [1]: 6.2 ± 3.1%
- Percent Change from Baseline at Last Visit, LDL-C [1]: −2.6 ± 4.4%
- Percent Change from Baseline at Last Visit, NonHDL-C [1]: −2.5 ± 4.0%
- Percent Change from Baseline at Last Visit, Apolipoprotein A-I [2]: 7.3 (−7, 40) %
- Percent Change from Baseline at Last Visit, Apolipoprotein B [2]: −0.7 (−17, 13) %
- Percent Change from Baseline at Last Visit, Apolipoprotein E [2]: −7.7 (−42, 15) %
- Percent Change from Baseline at Last Visit, TG [2]: −0.4 (−33, 32) %
- Percent Change from Baseline at Last Visit, Apolipoprotein A-II [3]: 3.3 ± 2.8%
- Percent Change from Baseline at Last Visit, Apolipoprotein CIII [3]: −14.3 ± 10.5%
- Percent Change from Baseline at Last Visit, HDL-C [3]: 5.3 ± 3.5%
- Percent Change from Baseline at Last Visit, LDL-C [3]: −5.6 ± 5.2%
- Percent Change from Baseline at Last Visit, NonHDL-C [3]: −11.6 ± 4.2 %
- Percent Change from Baseline at Last Visit, Apolipoprotein A-I [4]: 1.3 (−11, 31) %
- Percent Change from Baseline at Last Visit, Apolipoprotein B [4]: −11.7 (−33, 2) %
- Percent Change from Baseline at Last Visit, TG [4]: −14.6 (−55, 18) %
- Percent Change from Baseline at Last Visit, Apolipoprotein A-II [5]: 7.2 ± 2.6 %
- Percent Change from Baseline at Last Visit, Apolipoprotein CIII [5]: 5.4 ± 9.0%
- Percent Change from Baseline at Last Visit, HDL-C [5]: 0.5 ± 3.2%
- Percent Change from Baseline at Last Visit, LDL-C [5]: −24.9 ± 4.6 %
- Percent Change from Baseline at Last Visit, NonHDL-C [5]: −17.6 ± 3.8 %
- Percent Change from Baseline at Last Visit, Apolipoprotein A-I [6]: 7.1 (−7, 89) %
- Percent Change from Baseline at Last Visit, TG [6]: 6.4 (−45, 97) %
- Percent Change from Baseline at Last Visit, Apolipoprotein A-II [7]: 6.5 ± 2.5 %
- Percent Change from Baseline at Last Visit, Apolipoprotein CIII [7]: −9.5 ± 8.6%
- Percent Change from Baseline at Last Visit, HDL-C [7]: 5.0 ± 3.2%
- Percent Change from Baseline at Last Visit, LDL-C [7]: −15.2 ± 4.4 %
- Percent Change from Baseline at Last Visit, NonHDL-C [7]: −17.9 ± 3.6 %
- Percent Change from Baseline at Last Visit, Apolipoprotein A-I [8]: 5.5 (−11, 34) %
- Percent Change from Baseline at Last Visit, Apolipoprotein B [8]: −15.7 (−38, 21) %
- Percent Change from Baseline at Last Visit, TG [8]: −8.1 (−35, 29) %
- Percent Change from Baseline at Last Visit, Apolipoprotein A-II [9]: 5.9 ± 2.7 %
- Percent Change from Baseline at Last Visit, Apolipoprotein CIII [9]: −23.6 ± 5.7 %
- Percent Change from Baseline at Last Visit, HDL-C [9]: 17.6 ± 3.8 %
- Percent Change from Baseline at Last Visit, NonHDL-C [9]: −1.6 ± 3.6%
- Percent Change from Baseline at Last Visit, Apolipoprotein B [10]: 0.0 (−29, 33) %
- Percent Change from Baseline at Last Visit, Apolipoprotein E [10]: −20.0 (−52, 19) %
- Percent Change from Baseline at Last Visit, LDL-C [10]: 16.4 (−26,255) %
- Percent Change from Baseline at Last Visit, Apolipoprotein A-II [11]: 0.5 ± 2.6%
- Percent Change from Baseline at Last Visit, Apolipoprotein CIII [11]: −30.9 ± 5.6 %
- Percent Change from Baseline at Last Visit, HDL-C [11]: 12.3 ± 3.8%
- Percent Change from Baseline at Last Visit, NonHDL-C [11]: −9.4 ± 3.5%
- Percent Change from Baseline at Last Visit, Apolipoprotein B [12]: −6.5 (−30, 31) %
- Percent Change from Baseline at Last Visit, Apolipoprotein E [12]: −37.4** %
- Percent Change from Baseline at Last Visit, LDL-C [12]: 8.3 (−31, 252) %
- Percent Change from Baseline at Last Visit, Apolipoprotein A-II [13]: −0.8 ± 3.0%
- Percent Change from Baseline at Last Visit, Apolipoprotein CIII [13]: −6.4 ± 6.5%
- Percent Change from Baseline at Last Visit, HDL-C [13]: −0.9 ± 4.1%
- Percent Change from Baseline at Last Visit, NonHDL-C [13]: −10.9 ± 4.2%
- Percent Change from Baseline at Last Visit, Apolipoprotein B [14]: −5.7 (−34, 54) %
- Percent Change from Baseline at Last Visit, Apolipoprotein E [14]: −25.4 (−49, 18) %
- Percent Change from Baseline at Last Visit, TG [14]: −12.7 (−59, 38) %
- Percent Change from Baseline at Last Visit, Apolipoprotein A-II [15]: −4.8 ± 2.6%
- Percent Change from Baseline at Last Visit, Apolipoprotein CIII [15]: −10.8 ± 5.6%
- Percent Change from Baseline at Last Visit, HDL-C [15]: −0.9 ± 3.8%
- Percent Change from Baseline at Last Visit, NonHDL-C [15]: −16.3 ± 4.3 %
- Percent Change from Baseline at Last Visit, Apolipoprotein E [16]: −11.7 (−59, 65) %
- Percent Change from Baseline at Last Visit, TG [16]: −9.0 %
- serum HDL-C or TG levels versus placebo (patients with mean baseline TG <200 mg/dL, any dose): no significant differences
- decrease in apolipoprotein C-III [17]: 23%
- increase in level of apolipoprotein A-I [17]: 6%
- increase in level of apolipoprotein A-II [17]: 6%
- increase in serum HDL-C levels [17]: 18%
- reduction of TG serum levels [17]: 27%
- reduction of TG serum levels (patients with mean baseline TG≧2200 mg/dL (so in the source), 300 mg dose): 39%
- serum HDL-C or TG levels versus placebo (patients with mean baseline TG≧2200 mg/dL (so in the source), doses of 600 or 900 mg): No significant differences
